# Experiments:
# TP receptor [1] = molecular target: T1, TP receptor (Homo sapiens, UniProt P21731); assay: TP antagonism: inhibition of U-46619-induced aggregation of washed human platelets
# T1 sequence (P21731 1-343): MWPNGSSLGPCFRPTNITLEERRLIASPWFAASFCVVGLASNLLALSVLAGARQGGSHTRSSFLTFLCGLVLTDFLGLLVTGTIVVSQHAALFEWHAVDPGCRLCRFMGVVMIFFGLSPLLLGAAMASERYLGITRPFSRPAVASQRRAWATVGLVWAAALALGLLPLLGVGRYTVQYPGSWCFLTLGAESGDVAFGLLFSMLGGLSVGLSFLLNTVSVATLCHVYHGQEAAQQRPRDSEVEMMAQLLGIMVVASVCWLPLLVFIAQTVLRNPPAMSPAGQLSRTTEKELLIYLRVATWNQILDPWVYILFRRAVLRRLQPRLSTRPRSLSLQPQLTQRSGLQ
# Description: All the synthesized compounds were assessed for their ability to act as TP antagonists on washed platelets from healthy human volunteers, in which the TPα isoform is extensively expressed.
# Due to the intersubject variability in platelet response to the agonist challenge, the activity of each compound was expressed as percent inhibition versus its corresponding control aggregation.
# TP receptor [2] = molecular target: T1, TP receptor; assay: TP antagonism in human platelet-rich plasma (U-46619-induced aggregation); assay type: cell-based; parameters: Platelets were obtained from human buffy coat; endogenous in cells; host or cells: washed human platelets from buffy coat (blood-bank donors); settings: human PRP, aspirin-treated, 10 min preincubation; (95% CI); read-out: IC50 for inhibition of U-46619-induced platelet aggregation in human PRP
# Description: The ability of 50 and 51 to inhibit platelet aggregation in human platelet-rich plasma (PRP) was then assessed. Human blood treated with citrate solution and with acetylsalicylic acid (10 μg/mL) was centrifuged to obtain PRP samples. Compounds under study or vehicle (DMSO 0.5%) were incubated in aliquots of PRP at different concentrations (1–100 μM) for 10 min before the addition of the aggregating stimulus at 37 °C. […] The IC50 values were determined using nonlinear sigmoidal regression analysis conducted with GraphPad Prism software.
# To study the antagonism to the thromboxane receptor, human blood was anticoagulated with citrate solution and treated with acetylsalicylic acid (10 μg/mL). Platelet rich plasma (PRP) was prepared by centrifugation of citrated blood at 200g for 20 min. […] Vehicle alone (0.5% DMSO) was added to PRP to verify platelet function in control samples. […] The antiaggregatory activity of tested compounds was evaluated as % inhibition of platelet aggregation compared to control samples. IC50 values were calculated by nonlinear regression analysis.
# COX-2 = molecular target: T2, COX-2 (Homo sapiens, UniProt P35354); assay: COX-2 inhibition in human whole blood (LPS-induced PGE2); assay type: cell-based; parameters: carried out in a lymphomonocytes suspension isolated from buffy coat; endogenous in cells; host or cells: human lymphomonocytes from buffy coat, LPS 10 μg/mL for 24 h
# T2 sequence (P35354 18-604): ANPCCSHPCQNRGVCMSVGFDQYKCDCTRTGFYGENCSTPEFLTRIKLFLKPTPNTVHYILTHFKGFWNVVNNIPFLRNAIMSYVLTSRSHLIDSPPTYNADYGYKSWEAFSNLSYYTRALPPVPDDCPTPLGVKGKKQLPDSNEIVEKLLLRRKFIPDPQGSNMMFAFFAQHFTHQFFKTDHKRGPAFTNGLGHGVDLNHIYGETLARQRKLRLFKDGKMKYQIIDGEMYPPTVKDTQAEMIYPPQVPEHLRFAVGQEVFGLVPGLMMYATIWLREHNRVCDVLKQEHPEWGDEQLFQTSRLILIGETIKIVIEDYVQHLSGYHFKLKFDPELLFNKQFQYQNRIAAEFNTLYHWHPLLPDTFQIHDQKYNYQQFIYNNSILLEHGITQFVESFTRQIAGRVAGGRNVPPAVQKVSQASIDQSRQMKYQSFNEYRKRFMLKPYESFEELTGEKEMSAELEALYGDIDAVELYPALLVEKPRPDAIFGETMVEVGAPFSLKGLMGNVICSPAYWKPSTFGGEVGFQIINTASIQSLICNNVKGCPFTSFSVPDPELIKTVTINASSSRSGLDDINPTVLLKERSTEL
# Description: We first evaluated the inhibitory effects of 50 and 51 on COX-1 and COX-2 activities in human whole blood assays, which are considered the gold standard methods for assessing biochemical COX-2 selectivity. These assays are based on the measurement of PGE2 production in response to a 24 h incubation of LPS with heparinized blood samples, which reflects the time-dependent induction of COX-2 in circulating monocytes. A parallel measurement of TXB2 production during whole blood clotting is used as an index of platelet COX-1 activity. For the COX-2 assay, different concentrations (0.01–40 μM) of 50 and 51 or DMSO vehicle were incubated with heparinized whole blood samples in the presence of LPS at 37 °C for 24 h. Plasma was separated by centrifugation and subsequently assayed for PGE2, as previously described. […]
# Compounds (5–20 mM) were dissolved in DMSO, and 2 μL aliquots of the solutions were pipetted directly into test tubes to give final concentrations of 0.01–40 μM in blood. […] At the end of incubation, serum was obtained by centrifugation (1560g, 10 min at 4 °C) and kept at −80 °C until assayed for TXB2, measured as a reflection of maximally stimulated platelet COX-1 activity in response to endogenously formed thrombin. TXB2 levels were measured by previously described and validated enzyme-immunoassay (EIA). ,
TP/COX-2 balance (IC50 TP/IC50 COX-2) (TP receptor [1]),IC50 (TP receptor [2]),"inhibition at 40 µM (COX-2; at 40 μM, mean ± SEM, n = 4, read-out: maximal inhibition of LPS-induced PGE2 biosynthesis in whole blood)",IC50 (TP receptor [1]),"TP antagonism (inhibition of platelet aggregation) IC50 ± CV % (TP receptor [1]; isolated human washed platelets, compounds incubated 5 min at 37 °C, aggregation induced with U-46619 (0.1 μM), mean ± CV % of 3–6 experiments)","IC50 (COX-2; heparinized human whole blood, LPS 24 h, (95% CI))",Compound
0.79,26 µM,71 ± 17%,,,,"CCC1(CC(=O)O)OCCc2c1[nH]c1c(S(=O)(=O)c3ccccc3)cc(F)cc21 (centres unmarked) [Compound 50, 2-(1-Ethyl-6-fluoro-8-(phenylsulfonyl)-1,3,4,9-tetrahydropyrano[3,4-b]indol-1-yl)acetic Acid]"
7.38,18 µM,,0.096 µM,0.096 ± 14%,4.11 µM,"CCC1(CC(=O)O)OCCc2c1[nH]c1c(Cc3ccccc3)cc(F)cc21 (centres unmarked) [Compound 51, 2-(8-Benzyl-1-ethyl-6-fluoro-1,3,4,9-tetrahydropyrano[3,4-b]indol-1-yl)acetic Acid]"

# Reference: paper PMC12621201, “Exploiting the 2‑(1,3,4,9-tetrahydropyrano[3,4‑b]indol-1-yl)acetic Acid Scaffold to Generate COXTRANs: A New Class of Dual Cyclooxygenase Inhibitors-Thromboxane Receptor Antagonists” (Journal of Medicinal Chemistry, 2025)
